Results published in EPA's ToxRefDB 2.

Columns and labels:
[1] = test system: rat; settings: Prenatal developmental toxicity study, sprague dawley, Oral, Gavage/Intubation, dose end: 17 GD
[2] = test system: rabbit; settings: Prenatal developmental toxicity study, himalayan, Oral, Gavage/Intubation, dose end: 18 GD, group: maternal
[3] = test system: rat; settings: Sub-acute repeat dose toxicity, sprague dawley, Oral, Gavage/Intubation, dose end: 4 week, group: systemic
[4] = test system: rat; settings: Sub-acute repeat dose toxicity; Inhalation; Whole-Body; dose end: 14 day; group: systemic; systemic / hematology / blood clotting / blood clotting - activated partial thromboplastin time + systemic / in life observation / body …
[5] = test system: dog; settings: Sub-acute repeat dose toxicity; beagle; Inhalation; Whole-Body; dose end: 14 day; group: systemic; systemic / in life observation / food consumption / food consumption + systemic / pathology microscopic / nose / [other] + systemic / …
[6] = test system: primate; settings: Subchronic oral toxicity in nonrodent, Gavage/Intubation, dose end: 42 day, group: systemic, systemic / in life observation / body weight / body weight + systemic / in life observation / clinical signs / emesis + systemic / in life …
[7] = test system: rabbit; settings: Sub-acute repeat dose toxicity, Oral, Gavage/Intubation, dose end: 5 day, group: systemic
[8] = test system: rat; settings: Fertility (Segment I), sprague dawley, Oral, Gavage/Intubation, dose end: 1 generation, group: parental
[9] = test system: rabbit; settings: Prenatal developmental toxicity study; new zealand white; Oral; Gavage/Intubation; dose end: 19 GD; group: maternal; systemic / in life observation / body weight / body weight gain + systemic / in life observation / clinical signs / reduced activity + …
[10] = test system: rat; settings: Sub-acute repeat dose toxicity, sprague dawley, Oral, Gavage/Intubation, dose end: 12 day, group: systemic
[11] = test system: rat; settings: Subchronic oral toxicity in rodents, sprague dawley, Gavage/Intubation, dose end: 42 day, group: systemic
[12] = test system: rabbit; settings: Sub-acute repeat dose toxicity, new zealand white, Oral, Gavage/Intubation, dose end: 13 day
[13] = test system: primate; settings: Sub-acute repeat dose toxicity, Oral, Gavage/Intubation, dose end: 9 day, group: systemic
[14] = test system: rat; settings: Sub-acute repeat dose toxicity, sprague dawley, Oral, Gavage/Intubation, dose end: 14 day, group: systemic
[15] = test system: primate; settings: Subchronic oral toxicity in nonrodent, Gavage/Intubation, dose end: 48 day, group: systemic
[16] = test system: primate; settings: Sub-acute repeat dose toxicity; Oral; Gavage/Intubation; dose end: 5 day; group: systemic; systemic / in life observation / clinical signs / emesis + systemic / in life observation / food consumption / food consumption
[17] = test system: rat; settings: Prenatal developmental toxicity study, sprague dawley, Oral, Gavage/Intubation, dose end: 18 GD
[18] = test system: rat; settings: Fertility (Segment I), sprague dawley, Oral, Gavage/Intubation, dose end: 1 generation, group: parental; remark: listed apart in the source
[19] = test system: rat; settings: Prenatal developmental toxicity study, Oral, Gavage/Intubation, dose end: 18 GD
[20] = test system: rat; settings: Subchronic oral toxicity in rodents, Gavage/Intubation, dose end: 64 day, group: systemic, systemic / in life observation / body weight / body weight + systemic / in life observation / clinical signs / motor activity + systemic / …
[21] = test system: rat; settings: Sub-acute repeat dose toxicity, sprague dawley, Oral, Gavage/Intubation, dose end: 22 day, group: systemic
[22] = group: developmental, developmental / developmental malformation / general / crown-rump length + systemic / in life observation / body weight / fetal weight
[23] = group: maternal, reproductive / reproductive performance / resorptions / resorptions + systemic / in life observation / body weight / body weight + systemic…
[24] = systemic / in life observation / body weight / body weight gain + systemic / in life observation / food consumption / food consumption
[25] = systemic / in life observation / food consumption / food consumption
[26] = systemic / hematology / mean corpuscular (cell) volume (mcv) / mean corpuscular (cell) volume (mcv) + systemic / pathology microscopic / …
[27] = systemic / in life observation / body weight / body weight + systemic / in life observation / body weight / body weight gain + systemic / in…
[28] = systemic / in life observation / clinical signs / abnormal feces
[29] = systemic / in life observation / clinical signs / abnormal respiratory sounds + systemic / in life observation / clinical signs / drooping …
[30] = systemic / in life observation / body weight / body weight gain + systemic / in life observation / clinical signs / respiration (rales) + …
[31] = systemic / in life observation / body weight / body weight gain + systemic / in life observation / clinical signs / salivation + systemic / …
[32] = systemic / hematology / erythrocyte (rbc) count differential / erythrocyte (rbc) + systemic / hematology / hemoglobin (hgb) / hemoglobin (…
[33] = group: maternal, reproductive / offspring survival early / litter viability other / litter viability
[34] = group: systemic, systemic / in life observation / body weight / body weight + systemic / in life observation / clinical signs / inappetence
[35] = group: systemic, systemic / in life observation / body weight / body weight + systemic / in life observation / clinical signs / inappetence + systemic / in …
[36] = systemic / hematology / lymphocyte / lymphocyte
[37] = systemic / in life observation / clinical signs / emesis + systemic / in life observation / clinical signs / salivation + systemic / …
[38] = systemic / in life observation / food consumption / food consumption + systemic / pathology gross / intestine large / dilatation + systemic…
[39] = systemic / in life observation / clinical signs / emesis + systemic / pathology microscopic / peritoneum / atrophy
[40] = systemic / in life observation / clinical signs / emesis + systemic / pathology microscopic / peritoneum / atrophy + systemic / in life …
[41] = group: developmental, developmental / developmental malformation / eye / anophthalmia + developmental / developmental malformation / eye / microphthalmia + …
[42] = group: maternal, systemic / in life observation / body weight / body weight + systemic / in life observation / body weight / body weight gain + systemic / in…
[43] = systemic / in life observation / body weight / body weight + systemic / in life observation / clinical signs / altered breathing rate + …
[44] = group: developmental, developmental / developmental malformation / bone / fused + developmental / developmental malformation / bone / delayed ossification + …
[45] = group: maternal, systemic / in life observation / body weight / body weight gain + systemic / in life observation / food consumption / food consumption
[46] = systemic / in life observation / body weight / body weight gain

CCN(CC)C(=O)c1cc(S(=O)(=O)Cc2ccccc2)c(N2CCC(c3ccccc3)CC2)cc1N(CC)CCN(C)C [HMR1171]
LEL [1, 22]: 60 mg/kg/day
LOAEL [1, 22]: 60 mg/kg/day
NEL [1, 22]: 10 mg/kg/day
NOAEL [1, 22]: 10 mg/kg/day
LEL [1, 23]: 60 mg/kg/day
LOAEL [1, 23]: 60 mg/kg/day
NEL [1, 23]: 10 mg/kg/day
NOAEL [1, 23]: 10 mg/kg/day
LOAEL [2, 24]: > 240 mg/kg/day
NEL [2, 24]: 60 mg/kg/day
NOAEL [2, 24]: ≥ 240 mg/kg/day
LEL [2, 25]: 120 mg/kg/day
NEL ([3]; systemic / clinical chemistry / alkaline phosphatase (alp/alk) / alkaline phosphatase (alp/alk) + systemic / clinical chemistry / …): 5 mg/kg/day
LEL [3, 26]: 20 mg/kg/day
LOAEL [3, 26]: 20 mg/kg/day
NOAEL [3, 26]: 5 mg/kg/day

CN(C[C@@H](CC[N+]12CCC(C3CCCCC3)(CC1)CC2)c1ccc(Cl)c(Cl)c1)C(=O)c1cc(C(F)(F)F)cc(C(F)(F)F)c1.CS(=O)(=O)[O-]
LEL [4]: 2 mg/kg/day
LOAEL [4]: > 2 mg/kg/day
NEL [4]: < 2 mg/kg/day
NOAEL [4]: ≥ 2 mg/kg/day
LEL [5]: 2 mg/kg/day
LOAEL [5]: > 2 mg/kg/day
NEL [5]: < 2 mg/kg/day
NOAEL [5]: ≥ 2 mg/kg/day

C[C@@H](Oc1ccc(CNC(=O)c2cccnc2Oc2ccc3c(c2)OCO3)c(F)c1)C(=O)O
LEL [6]: 200 mg/kg/day
LOAEL [6]: > 1000 mg/kg/day
NEL [6]: 30 mg/kg/day
NOAEL [6]: ≥ 1000 mg/kg/day
LOAEL [7, 27]: > 750 mg/kg/day
NOAEL [7, 27]: ≥ 750 mg/kg/day
LEL [7, 28]: 120 mg/kg/day
NEL [7, 28]: < 120 mg/kg/day
LOAEL [8, 29]: > 1000 mg/kg/day
NEL [8, 29]: 50 mg/kg/day
NOAEL [8, 29]: ≥ 1000 mg/kg/day
LEL ([8]; systemic / in life observation / clinical signs / reduced activity + systemic / in life observation / clinical signs / salivation): 400 mg/kg/day
LEL [9]: 200 mg/kg/day
LOAEL [9]: > 200 mg/kg/day
NEL [9]: 60 mg/kg/day
NOAEL [9]: ≥ 200 mg/kg/day
LOAEL [10, 30]: > 1000 mg/kg/day
NOAEL [10, 30]: ≥ 1000 mg/kg/day
LEL [10, 31]: 400 mg/kg/day
NEL [10, 31]: < 400 mg/kg/day
LOAEL [11, 32]: > 2000 mg/kg/day
NOAEL [11, 32]: ≥ 2000 mg/kg/day
NEL ([11]; systemic / hematology / neutrophils / neutrophils + systemic / in life observation / body weight / body weight + systemic / in life …): 10 mg/kg/day
LEL ([11]; systemic / pathology microscopic / mesentery / infiltration cellular): 50 mg/kg/day
LEL [12, 33]: 600 mg/kg/day
LOAEL [12, 33]: > 600 mg/kg/day
NEL [12, 33]: 400 mg/kg/day
NOAEL [12, 33]: ≥ 600 mg/kg/day
LEL [12, 34]: 120 mg/kg/day
NEL [12, 34]: < 120 mg/kg/day
LOAEL [12, 35]: > 600 mg/kg/day
NOAEL [12, 35]: ≥ 600 mg/kg/day
LEL [13, 36]: 100 mg/kg/day
NEL [13, 36]: < 100 mg/kg/day
LOAEL [13, 37]: > 1000 mg/kg/day
NOAEL [13, 37]: ≥ 1000 mg/kg/day
LEL [14, 25]: 120 mg/kg/day
NEL ([14]; systemic / in life observation / food consumption / food consumption + systemic / pathology gross / intestine large / dilatation): 30 mg/kg/day
LOAEL [14, 38]: > 750 mg/kg/day
NOAEL [14, 38]: ≥ 750 mg/kg/day
LEL [15, 39]: 5 mg/kg/day
NEL [15, 39]: < 5 mg/kg/day
LOAEL [15, 40]: > 30 mg/kg/day
NOAEL [15, 40]: ≥ 30 mg/kg/day
LEL [16]: 30 mg/kg/day
LOAEL [16]: > 30 mg/kg/day
NEL [16]: < 30 mg/kg/day
NOAEL [16]: ≥ 30 mg/kg/day
LEL [17, 41]: 400 mg/kg/day
LOAEL [17, 41]: > 1000 mg/kg/day
NOAEL [17, 41]: ≥ 1000 mg/kg/day
LOAEL [17, 42]: > 1000 mg/kg/day
NEL [17, 42]: 120 mg/kg/day
NOAEL [17, 42]: ≥ 1000 mg/kg/day
LEL ([17]; group: maternal, systemic / in life observation / clinical signs / salivation + systemic / in life observation / food consumption / food consumption + …): 400 mg/kg/day
LOAEL [18, 43]: > 1000 mg/kg/day
NEL [18, 43]: 50 mg/kg/day
NOAEL [18, 43]: ≥ 1000 mg/kg/day
LEL ([18]; systemic / in life observation / body weight / body weight + systemic / in life observation / clinical signs / drooping eyelids (ptosis) + …): 400 mg/kg/day

FC(F)(F)c1ccc2c(c1)[C@H]1CNC[C@@H]2C1
LEL ([19]; group: developmental, developmental / developmental malformation / bone / delayed ossification + developmental / developmental malformation / bone / fused + …): 3 mg/kg/day
LOAEL [19, 44]: > 7 mg/kg/day
NOAEL [19, 44]: ≥ 7 mg/kg/day
LOAEL [19, 42]: > 7 mg/kg/day
NOAEL [19, 42]: ≥ 7 mg/kg/day
LEL [19, 45]: 1 mg/kg/day
NEL [19, 45]: < 1 mg/kg/day
LEL [20]: 3 mg/kg/day
LOAEL [20]: > 3 mg/kg/day
NEL [20]: 1 mg/kg/day
NOAEL [20]: ≥ 3 mg/kg/day
LOAEL [21, 27]: > 7 mg/kg/day
NOAEL [21, 27]: ≥ 7 mg/kg/day
LEL [21, 46]: 1 mg/kg/day
NEL [21, 46]: < 1 mg/kg/day
